From US7662860B2 (priority 2003, dated 2010)
Read-outs that look alike come from different tables or passages of the source.

Tests used:
[1] = test system: SARS-CoV virus; assay type: cell-based; conditions: for CPE / Protective ratio of the infected cells: Vero-E6 cells infected with SARS-CoV; for Protective ratio of the infected cells: >1.5 times judged active
[2] = test system: Vero-E6 cell

SMILES: CN(C)CCCSc1ccccc1NC(=O)C=Cc1ccccc1 [cinanserin, 2′-(3-dimethylaminopropylthio)cinnamanilide]
- CPE ([1]; 4 ug/mL): + (<25% +)
- Protective ratio of the infected cells ([1]; 4 ug/mL): 3.69 times
- CPE ([1]; 20 ug/mL): + (<25% +)
- Protective ratio of the infected cells ([1]; 20 ug/mL): 3.85 times
- protective activity of inhibiting SARS-CoV from infecting Vero-E6 cell ([1]; result in words): evident protective activity
- Cytotoxicity of the sample [2]: —* (key: *: if the cytotoxicity of the sample is >50% when comparing with the cell control, CPE isn't evaluated, and the protective ratio isn't calculated)
